Source: patent US5358712A, “Radiopharmaceutical agents for the detection of Alzheimer's disease” (Regents of the University of Minnesota, priority 1993, dated 1994)
Blank lines part the entries; values can stand above or below the compound they belong to.

Columns and labels:
[1] = Tissue distribution (biodistribution) of radioiodinated compound in the rat; settings: rat, iv; for tissue uptake at 1 h: 60 min; for tissue uptake at 3 h: 180 min
Description: Four groups of male Wistar rats (with four animals per group) weighing 200-350 g were used in these experiments. Each animal received, while under ether anesthesia, an intravenous injection of the radiotracer (10-20 μCi) dissolved in 0.1 ml of 50% aqueous ethanol. At 5, 30, and 60 and 180 min. post-injection, blood was collected from the anesthetized animals by cardiac puncture, and the animal was immediately sacrificed by cardiectomy. The organs and tissues of interest were harvested, transferred to preweighed tubes and counted in a Beckman gamma counter. The tubes were subsequently reweighed to give the weight of the corresponding tissues. Preweighed tubes containing ^1 -ml samples of a 1:100 dilution of the injection dose were also counted and used as reference for calculating the tissue accumulation of radioactivity. The accumulation of radiotracer was expressed as a percentage of injected dose per gram of tissue.

[2] = Blocking experiments: inhibition of radiotracer accumulation in the rat by coadministered compound; format: in vivo, rat (male Wistar); settings: rat, iv, rat, iv, 60 min
Description: *Animals in group 1 received an iv injection of (+)4-[^125 l]HIPP
only. For groups 2, 3, and 4, the radiotracer was coadministered with the
hydrochlorides of (+)7 (0.53 mg/kg), (-)7 (0.53 mg/kg) and vesamicol (0.3
Four groups of male Wistar rats (n=3) were used in these experiments. All animals received an iv dose of 8-10 μCi of the radiotracer in 0.1 ml of 50% aq. ethanol. Additionally, in groups 2, 3 and 4, the radiotracer was coadministered with (+)-HBrPP.HCl(1.3 μmol/kg), (-)-HBrPP.HCl(1.3 μmol/kg) and (dl)-vesamicol hydrochloride (1.1 μmol/kg), respectively. At 60 min. post-injection, blood was collected by cardiac puncture and the animals sacrificed as described above. The data was analyzed as outlined above.
NOTE: The dose of radiotracer injected was 5-7 mCi. Group I was the
control, injected with the radiotracer only. Group II included the
simultaneous injection of "cold"(dl)3-HIPP (HCl) (0.53 mg/kg). Group III
included the simultaneous injection of (dl) vesamicol (HCl) (0.31 mg/kg).
All rats were sacrificed at one hour postinjection.
NOTE: Group I was the control, injected with the radiotracer only. Group
II included the simultaneous injection of "cold"(dl)3-HIPP (HCl) (0.53
mg/kg). Group III included the simultaneous injection of (dl) vesamicol
hydrochloride (0.31 mg/kg). The dose of radiotracer was 8-9 μCi. All
rats were sacrificed at one hour postinjection.
NOTE: Group I received (+)[^125 l]13 only. Group II received the (+)
radiotracer coinjected with 0.31 mg/kg (dl)vesamicol hydrochloride. Group
III received (-)[^125 l]13 only. Group IV received the (-) radiotrace
coinjected with 0.31 mg/kg (dl)vesamicol hydrochloride. All animals were
sacrificed at one hour postinjection. The dose of radiotracer injected pe

[3] = kidney, radioactivity in kidney
[4] = muscle, radioactivity in muscle
[5] = spleen, radioactivity in spleen
[6] = blood, radiotracer only (control), read-out: radioactivity in blood
[7] = brain, + (dl)-vesamicol HCl 0.3 (Table 3) or 0.31 mg/kg, read-out: radioactivity in brain
[8] = brain, radiotracer only (control), read-out: radioactivity in brain
[9] = heart, + (dl)-vesamicol HCl 0.3 (Table 3) or 0.31 mg/kg, read-out: radioactivity in heart
[10] = heart, radiotracer only (control), read-out: radioactivity in heart
[11] = kidney, + (dl)-vesamicol HCl 0.3 (Table 3) or 0.31 mg/kg, read-out: radioactivity in kidney
[12] = kidney, radiotracer only (control), read-out: radioactivity in kidney
[13] = liver, + (dl)-vesamicol HCl 0.3 (Table 3) or 0.31 mg/kg, read-out: radioactivity in liver
[14] = liver, radiotracer only (control), read-out: radioactivity in liver
[15] = lung, + (dl)-vesamicol HCl 0.3 (Table 3) or 0.31 mg/kg, read-out: radioactivity in lung
[16] = lung, radiotracer only (control), read-out: radioactivity in lung
[17] = muscle, + (dl)-vesamicol HCl 0.3 (Table 3) or 0.31 mg/kg, read-out: radioactivity in muscle
[18] = muscle, radiotracer only (control), read-out: radioactivity in muscle
[19] = spleen, + (dl)-vesamicol HCl 0.3 (Table 3) or 0.31 mg/kg, read-out: radioactivity in spleen
[20] = spleen, radiotracer only (control), read-out: radioactivity in spleen

tissue uptake at 5 min ([1]; blood, radioactivity in blood): 0.08 %ID/g
tissue uptake at 1 h ([1]; blood, radioactivity in blood): 0.09 %ID/g
tissue uptake at 3 h ([1]; blood, radioactivity in blood): 0.08 %ID/g
tissue uptake at 5 min ([1]; brain, radioactivity in brain): 1.03 %ID/g
tissue uptake at 1 h ([1]; brain, radioactivity in brain): 0.82 %ID/g
tissue uptake at 5 min ([1]; heart, radioactivity in heart): 1.3 %ID/g
tissue uptake at 1 h ([1]; heart, radioactivity in heart): 0.38 %ID/g
tissue uptake at 3 h ([1]; heart, radioactivity in heart): 0.16 %ID/g
tissue uptake at 5 min [1, 3]: 2.55 %ID/g
tissue uptake at 1 h [1, 3]: 1.28 %ID/g
tissue uptake at 3 h [1, 3]: 0.75 %ID/g
tissue uptake at 5 min ([1]; liver, radioactivity in liver): 1.17 %ID/g
tissue uptake at 1 h ([1]; liver, radioactivity in liver): 0.89 %ID/g
tissue uptake at 3 h ([1]; liver, radioactivity in liver): 0.51 %ID/g
tissue uptake at 5 min ([1]; lung, radioactivity in lung): 7.34 %ID/g
tissue uptake at 1 h ([1]; lung, radioactivity in lung): 1.42 %ID/g
tissue uptake at 3 h ([1]; lung, radioactivity in lung): 0.61 %ID/g
tissue uptake at 5 min [1, 4]: 0.27 %ID/g
tissue uptake at 1 h [1, 4]: 0.16 %ID/g
tissue uptake at 3 h [1, 4]: 0.12 %ID/g
tissue uptake at 5 min [1, 5]: 0.5 %ID/g
tissue uptake at 1 h [1, 5]: 1.12 %ID/g
tissue uptake at 3 h [1, 5]: 0.66 %ID/g
tissue uptake at 1 h ([2]; blood, + (dl)-vesamicol HCl 0.3 (Table 3) or 0.31 mg/kg, read-out: radioactivity in blood): 0.12 %ID/g
tissue uptake at 1 h ([2]; blood, + cold (dl)3-HIPP HCl 0.53 mg/kg, read-out: radioactivity in blood): 0.13 %ID/g
tissue uptake at 1 h [2, 6]: 0.09 %ID/g
tissue uptake at 1 h [2, 7]: 0.26 %ID/g
tissue uptake at 1 h ([2]; brain, + cold (dl)3-HIPP HCl 0.53 mg/kg, read-out: radioactivity in brain): 0.24 %ID/g
tissue uptake at 1 h [2, 8]: 0.76 %ID/g
tissue uptake at 1 h [2, 9]: 0.13 %ID/g
tissue uptake at 1 h ([2]; heart, + cold (dl)3-HIPP HCl 0.53 mg/kg, read-out: radioactivity in heart): 0.15 %ID/g
tissue uptake at 1 h [2, 10]: 0.36 %ID/g
tissue uptake at 1 h [2, 11]: 0.55 %ID/g
tissue uptake at 1 h ([2]; kidney, + cold (dl)3-HIPP HCl 0.53 mg/kg, read-out: radioactivity in kidney): 0.62 %ID/g
tissue uptake at 1 h [2, 12]: 1.48 %ID/g
tissue uptake at 1 h [2, 13]: 0.87 %ID/g
tissue uptake at 1 h ([2]; liver, + cold (dl)3-HIPP HCl 0.53 mg/kg, read-out: radioactivity in liver): 0.71 %ID/g
tissue uptake at 1 h [2, 14]: 0.86 %ID/g
tissue uptake at 1 h [2, 15]: 0.71 %ID/g
tissue uptake at 1 h ([2]; lung, + cold (dl)3-HIPP HCl 0.53 mg/kg, read-out: radioactivity in lung): 0.92 %ID/g
tissue uptake at 1 h [2, 16]: 1.52 %ID/g
tissue uptake at 1 h [2, 17]: 0.12 %ID/g
tissue uptake at 1 h ([2]; muscle, + cold (dl)3-HIPP HCl 0.53 mg/kg, read-out: radioactivity in muscle): 0.11 %ID/g
tissue uptake at 1 h [2, 18]: 0.17 %ID/g
tissue uptake at 1 h [2, 19]: 0.48 %ID/g
tissue uptake at 1 h ([2]; spleen, + cold (dl)3-HIPP HCl 0.53 mg/kg, read-out: radioactivity in spleen): 0.5 %ID/g
tissue uptake at 1 h [2, 20]: 1.14 %ID/g
SMILES: OC(Cc1cccc([125I])c1)CN1CCC(c2ccccc2)CC1 (single isomer, unassigned; (+)) [(+)-[^125 l]12, 2-Hydroxyl-3-(3-iodophenyl)-1-[1-(4-phenylpiperidinyl)]propane]

tissue uptake at 5 min ([1]; blood, radioactivity in blood): 0.1 %ID/g
tissue uptake at 1 h ([1]; blood, radioactivity in blood): 0.03 %ID/g
tissue uptake at 5 min ([1]; brain, radioactivity in brain): 1.43 %ID/g
tissue uptake at 1 h ([1]; brain, radioactivity in brain): 1.29 %ID/g
tissue uptake at 5 min ([1]; heart, radioactivity in heart): 1.34 %ID/g
tissue uptake at 1 h ([1]; heart, radioactivity in heart): 0.25 %ID/g
tissue uptake at 5 min [1, 3]: 3.12 %ID/g
tissue uptake at 1 h [1, 3]: 1.86 %ID/g
tissue uptake at 5 min ([1]; liver, radioactivity in liver): 1.19 %ID/g
tissue uptake at 1 h ([1]; liver, radioactivity in liver): 2.18 %ID/g
tissue uptake at 5 min ([1]; lung, radioactivity in lung): 7.87 %ID/g
tissue uptake at 5 min [1, 4]: 0.33 %ID/g
tissue uptake at 1 h [1, 4]: 0.14 %ID/g
tissue uptake at 5 min [1, 5]: 0.92 %ID/g
tissue uptake at 1 h [1, 5]: 0.9 %ID/g
tissue uptake at 1 h [2, 6]: 0.05 %ID/g
tissue uptake at 1 h [2, 7]: 0.24 %ID/g
tissue uptake at 1 h [2, 8]: 0.87 %ID/g
tissue uptake at 1 h [2, 9]: 0.08 %ID/g
tissue uptake at 1 h [2, 10]: 0.22 %ID/g
tissue uptake at 1 h [2, 11]: 0.41 %ID/g
tissue uptake at 1 h [2, 12]: 1.87 %ID/g
tissue uptake at 1 h [2, 13]: 2.53 %ID/g
tissue uptake at 1 h [2, 14]: 1.85 %ID/g
tissue uptake at 1 h [2, 15]: 0.42 %ID/g
tissue uptake at 1 h [2, 16]: 1.01 %ID/g
tissue uptake at 1 h [2, 17]: 0.06 %ID/g
tissue uptake at 1 h [2, 18]: 0.14 %ID/g
tissue uptake at 1 h [2, 19]: 0.33 %ID/g
tissue uptake at 1 h [2, 20]: 0.88 %ID/g
SMILES: OC(CN1CCC(c2ccccc2)CC1)c1ccc([125I])cc1 (single isomer, unassigned; (+)) [(+)-[^125 l]13, 1-(4-Iodophenyl)-2-(4-phenylpiperidinyl)ethanol]
